In US20230112845A1, “COMPOSITIONS OF BERBERINE URSODE[…] METHODS THEREOF FOR TREATING FATTY LIVER DISEASE, DIABETES AND HYPERLIPIDEMIA” (SHENZHEN HIGHTIDE BIOPHARMACEUTICAL LTD., priority 2020, published 2023):
Entries after “also recorded” stand apart in the source; their conditions may differ.

Tests used:
[1] = tested on: patients with presumed NASH and type 2 diabetes; assay: Phase 2 trial: adverse events, safety and tolerability; assay type: in vivo, human; details: for Subjects with TEAEs Related to Study Drug: Diarrhea, number (%) / Subjects with TEAEs Related to Study Drug: GERD, number (%) / Subjects with TEAEs Related to Study Drug: Nausea, number (%) / Subjects with TEAEs requiring discontinuation of study drug: Abdominal distension, number (%) / Subjects with TEAEs requiring discontinuation of study drug: Acute myocardial infarction, number (%) / Subjects with TEAEs requiring discontinuation of study drug: Diarrhea, number (%) / Subjects with TEAEs requiring discontinuation of study drug: GERD, number (%) / Subjects with TEAEs requiring discontinuation of study drug: Headache and Facial Rash, number (%) / Subjects with TEAEs requiring discontinuation of study drug: Melena, number (%): placebo 0; for Subjects with TEAEs Related to Study Drug: Headache, number (%) / Subjects with TEAEs requiring discontinuation of study drug: Bladder Cancer, number (%): placebo 1 (3%)
Protocol: (§1) A prospective, randomized, placebo-controlled trial of two doses of BUDCA administered orally was conducted in a cohort of 100 subjects with fatty liver disease and diabetes. Treatment was for 18 weeks and endpoints measured included reduction in liver fat content measured by […] proton density fat fraction, improvement in glycemic control, changes in liver-associated enzymes, safety and tolerability.
(§2) Patients with diabetes and presumed NASH were randomized into one of three treatment groups, as follows: 1) BUDCA 500 mg BID 2) 1,000 mg BID and 3) matching placebo. Presumed NASH was defined based largely on magnetic resonance imaging derived proton density fat fraction (MRI-PDFF) of 10% or more. Additional inclusion criteria further enriched the study population for having NASH by virtue of requiring corrected T1 (cT1) of more than 830 milliseconds and elevated serum aspartate aminotransferase (AST)≥20 units per liter (6). Subjects had to be overweight or obese with body mass index of 25 kg/m^2 or more.
(§3) Descriptive Statistics were used to summarize continuous data, and frequencies and percentages were used to summarize categorical data. The Safety Set consisted of all subjects who received at least one dose of study treatment. The Modified Efficacy Set is a subset of the Safety Set consisting of subjects that had at least one post-dose MRI-PDFF assessment. […] The primary endpoint was an absolute change from Baseline to Week 18 (or ET) in Liver Fat Content. Primary Endpoint summary measures were provided in both the Efficacy and Modified Efficacy sets, with the Efficacy Set prespecified as the primary analysis set. All other endpoints were prespecified to use the Modified Efficacy Set. Comparisons between active treatment groups relative to placebo were tested using Analysis of Covariance (ANCOVA) with treatment group as a fixed effect and baseline value of the parameters of interest as covariates. ANCOVA based LS Means and raw means have been reported. For statistical analysis of laboratory parameters (i.e. P-values), multiple imputation was used to take missing data into account. A two-sided alpha level of 0.05 without adjustment for multiple tests was used to indicate statistical significance. Analyses were performed using SAS System version 9.4.

[2] = tested on: patients with presumed NASH and type 2 diabetes; assay: Phase 2 randomized placebo-controlled trial, 18 weeks: liver fat content (MRI-PDFF), glycemic control, liver enzymes, lipids, body weight, fibrosis markers; assay type: in vivo, human; details: 500 mg BID, 18 weeks
From the text: The aim of this study was to determine the effect of two different doses of BUDCA on liver fat content (LFC) in patients with diabetes and presumed NASH when administered for 18 weeks. This phase 2 clinical trial tested the effect of BUDCA in patients with fatty liver disease and diabetes. The group taking the higher dose of this new drug had significant reductions in the amount of fat in their liver as well as improvement in their diabetes.
as §1, §2
Study subjects underwent an initial screening evaluation, including measurement of LFC by MRI-PDFF. Subjects were excluded if they had known liver disease other than fatty liver disease or a history of excessive alcohol consumption. Although liver biopsies were not done as a part of this study, subjects with clear evidence of cirrhosis were excluded, based upon a platelet count of less than 150,000/mm^3, serum albumin levels less than […] or a current or previous history of clinical hepatic decompensation.
Those who were deemed eligible were then randomized into one of the three treatment groups described above and underwent a further baseline evaluation at the time of randomization and initial dosing. Subjects were permitted to continue their current treatment regimen for diabetes provided they had been on a stable dose regimen for at least 90 days.
LFC was measured at baseline and after 18 weeks of therapy. In addition, changes in liver chemistry tests, measures of glycemic control and serum lipid levels were also assessed during and at the end of treatment.
as §3
Effects of treatment with BUDCA on AST to Platelet Ratio Index (APRI) and Fibrosis-4 (FIB-4) were also measured.

COc1ccc2cc3[n+](cc2c1OC)CCc1cc2c(cc1-3)OCO2.C[C@H](CCC(=O)[O-])[C@H]1CC[C@H]2[C@@H]3[C@@H](O)C[C@@H]4C[C@H](O)CC[C@]4(C)[C@H]3CC[C@]12C [BUDCA, berberine ursodeoxycholate]
tolerability ([1]; 500 mg BID and 1,000 mg BID, 18 weeks): generally well tolerated; also recorded: relatively well tolerated | Subjects with TEAEs Related to Study Drug: Diarrhea, number (%) ([1]; 500 mg BID, N = 33): 4 (12%) | Subjects with TEAEs Related to Study Drug: GERD, number (%) ([1]; 500 mg BID, N = 33): 2 (6%) | Subjects with TEAEs Related to Study Drug: Nausea, number (%) ([1]; 500 mg BID, N = 33): 1 (3%) | Subjects with TEAEs requiring discontinuation of study drug: Abdominal distension, number (%) ([1]; 500 mg BID, N = 33): 0 | Subjects with TEAEs requiring discontinuation of study drug: Acute myocardial infarction, number (%) ([1]; 500 mg BID, N = 33): 0 | Subjects with TEAEs requiring discontinuation of study drug: Diarrhea, number (%) ([1]; 500 mg BID, N = 33): 0 | Subjects with TEAEs requiring discontinuation of study drug: GERD, number (%) ([1]; 500 mg BID, N = 33): 1 (3%) | Subjects with TEAEs requiring discontinuation of study drug: Headache and Facial Rash, number (%) ([1]; 500 mg BID, N = 33): 0 | Subjects with TEAEs requiring discontinuation of study drug: Melena, number (%) ([1]; 500 mg BID, N = 33): 0 | Subjects with TEAEs Related to Study Drug: Headache, number (%) ([1]; 500 mg BID, N = 33): 2 (6%) | Subjects with TEAEs requiring discontinuation of study drug: Bladder Cancer, number (%) ([1]; 500 mg BID, N = 33): 0 | Subjects with TEAEs Related to Study Drug: Diarrhea, number (%) ([1]; 1,000 mg BID, N = 34): 9 (26%) | Subjects with TEAEs Related to Study Drug: GERD, number (%) ([1]; 1,000 mg BID, N = 34): 0 | Subjects with TEAEs Related to Study Drug: Nausea, number (%) ([1]; 1,000 mg BID, N = 34): 5 (15%) | Subjects with TEAEs requiring discontinuation of study drug: Abdominal distension, number (%) ([1]; 1,000 mg BID, N = 34): 1 (3%) | Subjects with TEAEs requiring discontinuation of study drug: Acute myocardial infarction, number (%) ([1]; 1,000 mg BID, N = 34): 1 (3%) | Subjects with TEAEs requiring discontinuation of study drug: Diarrhea, number (%) ([1]; 1,000 mg BID, N = 34): 2 (6%) | Subjects with TEAEs requiring discontinuation of study drug: GERD, number (%) ([1]; 1,000 mg BID, N = 34): 1 (3%) | Subjects with TEAEs requiring discontinuation of study drug: Headache and Facial Rash, number (%) ([1]; 1,000 mg BID, N = 34): 2 (6%) | Subjects with TEAEs requiring discontinuation of study drug: Melena, number (%) ([1]; 1,000 mg BID, N = 34): 1 (3%) | Subjects with TEAEs Related to Study Drug: Headache, number (%) ([1]; 1,000 mg BID, N = 34): 1 (3%) | Subjects with TEAEs requiring discontinuation of study drug: Bladder Cancer, number (%) ([1]; 1,000 mg BID, N = 34): 0 | serious adverse event in the high dose group, relation to study drug ([1]; 1,000 mg BID, one serious adverse event): not related to the study drug | Absolute Change in LFC (%), Mean ([2]; Efficacy Set, N 30, placebo −2.0): −2.9% | Relative Change in LFC (%), Mean ([2]; Efficacy Set, N 30, placebo −8.3): −15.1% | Absolute Change in LFC (%), LS Mean ([2]; Efficacy Set, placebo −1.8, P 0.199): −3.2% | Relative Change in LFC (%), LS Mean ([2]; Efficacy Set, placebo −8.2, P 0.196): −15.9% | Mean change in LDL-c (mg/dL), Mean ([2]; Modified Efficacy Set, N 27, placebo 0): 5 mg/dL | Mean change in HbA1c (%), Mean ([2]; Modified Efficacy Set, N 29, placebo 0.1): −0.3% | Relative change in GGT (%), Mean ([2]; Modified Efficacy Set, N 29, placebo 5): −23% | Mean change in TG (mg/dL), Mean ([2]; Modified Efficacy Set, N 29, placebo 18): -41 mg/dL | Mean change in GGT (U/L), Mean ([2]; Modified Efficacy Set, N 29, placebo −2): −19 U/L | Mean change in ALT (U/L), Mean ([2]; Modified Efficacy Set, N 29, placebo −3): −4 U/L | Relative change in ALT (%), Mean ([2]; Modified Efficacy Set, N 29, placebo −6): −6% | Mean change in HbA1c (%), LS Mean ([2]; Modified Efficacy Set, placebo 0.1, P 0.029): −0.4% | Mean change in LDL-c (mg/dL), LS Mean ([2]; Modified Efficacy Set, placebo 1, P 0.955): 1 mg/dL | Mean change in TG (mg/dL), LS Mean ([2]; Modified Efficacy Set, placebo 19, P 0.041): -36 mg/dL | Mean change in GGT (U/L), LS Mean ([2]; Modified Efficacy Set, placebo −1, P 0.005): −20 U/L | Mean change in ALT (U/L), LS Mean ([2]; Modified Efficacy Set, placebo −2, P 0.674): −5 U/L | Mean change in Body weight (kg), Mean ([2]; Safety Set, N 29, placebo −1.1): -1.6 kg | Mean change in Body weight (kg), LS Mean ([2]; Safety Set, placebo −1.1, P 0.554): -1.6 kg | decrease in triglyceride level ([2]; P=0.04): 41 mg/dL
